The compound `*Oc1ccc(-c2ccc(Oc3c(F)c(F)c(COC(C4CCCC(C(OCc5c(F)c(F)c(*)c(F)c5F)(C(F)(F)F)C(F)(F)F)C4)(C(F)(F)F)C(F)(F)F)c(F)c3F)cc2)cc1` (repeat unit) registered a CH4 permeability of 0.34 Barrer, a CO2 permeability of 8.2 Barrer, an H2 permeability of 20 Barrer and an N2 permeability of 0.61 Barrer. For the same compound, the O2 permeability amounted to 2.5 Barrer.
The compound `*Oc1c(C)cc(*)c(C(=O)c2ccc(Cl)cc2)c1C` (repeat unit) showed a CH4 permeability of 0.98 Barrer, a CO2 permeability of 16.8 Barrer, an N2 permeability of 1.8 Barrer and an O2 permeability of 8.6 Barrer.
In the case of `*C(=C(*)c1ccc2c(c1)C1(CC1)c1ccccc1-2)c1ccccc1` (repeat unit), the CH4 permeability was 810 Barrer, the CO2 permeability was 3200 Barrer, the H2 permeability worked out at 1400 Barrer and the N2 permeability worked out at 400 Barrer. The compound also gave an O2 permeability of 660 Barrer.
`*Oc1c(C)cc(C(C)(C)c2cc(C)c(OC(=O)c3cc(C(*)=O)cc(C(C)(C)C)c3)c(Br)c2)cc1Br` (repeat unit) showed a CH4 permeability of 1.06 Barrer, a CO2 permeability of 22.7 Barrer, an N2 permeability of 1.06 Barrer and an O2 permeability of 6.27 Barrer.
`*c1cccc(C(c2cccc(-c3nnc(*)n3-c3ccc(O)cc3)c2)(C(F)(F)F)C(F)(F)F)c1` (repeat unit) came in with a CH4 permeability of 1.41 Barrer, a CO2 permeability of 66.3 Barrer, an N2 permeability of 2.37 Barrer and an O2 permeability of 12.5 Barrer.
The compound `*CC(*)OCC1CCCCC1` (repeat unit) yielded a CO2 permeability of 5.89 Barrer, an N2 permeability of 0.4 Barrer and an O2 permeability of 1.55 Barrer.
As to `*c1ccc(C2(c3ccc(*)cc3)OC(=O)c3ccccc32)cc1` (repeat unit), the CH4 permeability was determined as 2.88 Barrer, the CO2 permeability is 72 Barrer, the H2 permeability was found to be 74 Barrer and the N2 permeability was 2.39 Barrer. The O2 permeability worked out at 11 Barrer.
Turning to `*c1c(C)cc(Cc2cc(C)c(N3C(=O)c4ccc(C(c5ccc6c(c5)C(=O)N(*)C6=O)(C(F)(F)F)C(F)(F)F)cc4C3=O)c(C)c2)cc1C` (repeat unit), the CH4 permeability is 1.45 Barrer, the CO2 permeability came out at 43.9 Barrer, the N2 permeability stood at 2.13 Barrer and the O2 permeability was 10.3 Barrer.
Compound `*c1cccc(N2C(=O)c3ccc(C(c4ccc5c(c4)C(=O)N(*)C5=O)(C(F)(F)F)C(F)(F)F)cc3C2=O)c1C` (repeat unit) showed a CH4 permeability of 0.88 Barrer, a CO2 permeability of 36.2 Barrer, an H2 permeability of 102 Barrer and an N2 permeability of 1.89 Barrer. This compound came in with an O2 permeability of 10.8 Barrer.
`*c1c(C)c(C)c(N2C(=O)c3ccc(Oc4cc(C)ccc4Oc4ccc5c(c4)C(=O)N(*)C5=O)cc3C2=O)c(C)c1C` (repeat unit) yielded a CH4 permeability of 0.47 Barrer, a CO2 permeability of 20 Barrer, an H2 permeability of 41 Barrer and an N2 permeability of 0.59 Barrer. This compound returned an O2 permeability of 3.5 Barrer.
`*Oc1ccc(S(=O)(=O)c2ccc(Oc3ccc4ccc(*)cc4c3)cc2)cc1` (repeat unit) had a CH4 permeability of 0.05 Barrer, a CO2 permeability of 1.8 Barrer, an H2 permeability of 8.15 Barrer and an N2 permeability of 0.0735 Barrer. This compound also displayed an O2 permeability of 0.5 Barrer.
The compound `*CC(*)OCC1CC2CC1C1CCCC21` (repeat unit) showed a CO2 permeability of 2.85 Barrer, an N2 permeability of 0.13 Barrer and an O2 permeability of 0.81 Barrer.
Compound `*c1ccc(C2(c3ccc(N4C(=O)c5ccc(C(c6ccc7c(c6)C(=O)N(*)C7=O)(C(F)(F)F)C(F)(F)F)cc5C4=O)cc3)c3ccccc3-c3ccccc32)cc1` (repeat unit) gave a CH4 permeability of 1.96 Barrer, a CO2 permeability of 58.9 Barrer and an N2 permeability of 3.3 Barrer.
`*Cc1ccc(C*)c(CC)c1` (repeat unit) registered a CO2 permeability of 1.89 Barrer, an H2 permeability of 4.31 Barrer, an N2 permeability of 0.0904 Barrer and an O2 permeability of 0.5 Barrer.

The record behind these values is a polymer gas permeability compilation.
